Results on 2 compounds are retold here after patent US20260070899A1, “N-(2-(4-CYANOTHIAZOLIDIN-3-YL)-2-OXOETHYL)-QUINOLINE-4-CARBOXAMIDES” (AstraZeneca AB, priority 2022, published 2026).

The target of series [1] is T1, human dipeptidylpeptidase 7 (hDPP7) (Homo sapiens, UniProt Q9UHL4).
T1 construct: purchased BPS Bioscience 80070
In words: hDPP7 inhibition assay. It is filed as biochemical. The note with it: hDPP7 15 nM, Ala-Pro-amino-methylcoumarin 5 μM; n = 1. On the procedure:
Compounds were tested in a biochemical inhibition assay using human dipeptidylpeptidase 7 (hDPP7) enzyme at 15 nM FAC (BPS Bioscience, #80070) and the substrate Ala-Pro-amino-methylcoumarin (BPS Bioscience, #80305) at 5 μM FAC. The enzymatic reactions were conducted in duplicate at rt for 30 min in 50 μL DPP assay buffer (BPS Bioscience, #80300). Compound solutions (in DMSO) at 10 CR, 3 fold dilution series were prepared in assay buffer ten-fold higher than the final concentration, and 5 μL of the dilution was added to a 50 μL reaction so that the highest compound concentration was 100 μM FAC and the concentration of DMSO was 1% in all wells. The plates were read on a Tecan Infinite M1000 microplate reader with excitation 340 nm and emission 460 nm. Data were analyzed in Graph Pad Prism. […] Raw data signals were normalized using 1% DMSO as 0% control and no enzyme as 100% inhibitor control.

The target of series [2] is T2, human dipeptidylpeptidase 8 (hDPP8) (Homo sapiens, UniProt Q6V1X1).
T2 construct: purchased BPS Bioscience 80080
In words: hDPP8 inhibition assay. It is filed as biochemical. The note with it: hDPP8 1.5 nM, Ala-Pro-amino-methylcoumarin 5 μM; n = 1. The protocol: Compounds were tested in a biochemical inhibition assay using human dipeptidylpeptidase 8 (hDPP8) enzyme at 1.5 nM FAC (BPS Bioscience, #80080) and the substrate Ala-Pro-amino-methylcoumarin (BPS Bioscience #80305) at 5 μM FAC. The enzymatic reactions were conducted in duplicate at rt for 30 min in 50 μL DPP assay buffer (BPS Bioscience, #80300). Compound solutions (in DMSO) at 10 CR, 3 fold dilution series were prepared in assay buffer ten-fold higher than the final concentration, and 5 μL of the dilution was added to a 50 μL reaction so that the highest compound concentration was 100 μM FAC and the concentration of DMSO was 1% in all wells. The plates were read on a Tecan Infinite M1000 microplate reader with excitation 340 nm and emission 460 nm. Data were analyzed in Graph Pad Prism. […] Raw data signals were normalized using 1% DMSO as 0% control and no enzyme as 100% inhibitor control.

For a further series, the system named is Rat Hepatocytes (rHep). The experiment in a line: Metabolic stability in rat hepatocytes (rHep). It is filed as in vitro ADME. The note with it: n = 1 or geometric mean (n = 2-3). On the procedure: Metabolic stability in rat hepatocytes was measured as described in J Comput Aided Mol Des 2015, 29, 795.
A short description of the next series: Kinetic solubility. It is filed as physicochemical. The note with it: kinetic from dmso stock, n = 1 or average (n = 2-4). On the procedure:
Kinetic solubility was measured as described in Comput Aided Mol Des 2015, 29, 795.

A short description of series [3]: Metabolic stability in human liver microsomes (HLM). It is filed as in vitro ADME. The note with it: n = 1 or average (n = 2-3). On the procedure:
Metabolic stability in HLM was measured as described in J Comput Aided Mol Des 2015, 29, 795.

T2 sequence (Q6V1X1 whole entry): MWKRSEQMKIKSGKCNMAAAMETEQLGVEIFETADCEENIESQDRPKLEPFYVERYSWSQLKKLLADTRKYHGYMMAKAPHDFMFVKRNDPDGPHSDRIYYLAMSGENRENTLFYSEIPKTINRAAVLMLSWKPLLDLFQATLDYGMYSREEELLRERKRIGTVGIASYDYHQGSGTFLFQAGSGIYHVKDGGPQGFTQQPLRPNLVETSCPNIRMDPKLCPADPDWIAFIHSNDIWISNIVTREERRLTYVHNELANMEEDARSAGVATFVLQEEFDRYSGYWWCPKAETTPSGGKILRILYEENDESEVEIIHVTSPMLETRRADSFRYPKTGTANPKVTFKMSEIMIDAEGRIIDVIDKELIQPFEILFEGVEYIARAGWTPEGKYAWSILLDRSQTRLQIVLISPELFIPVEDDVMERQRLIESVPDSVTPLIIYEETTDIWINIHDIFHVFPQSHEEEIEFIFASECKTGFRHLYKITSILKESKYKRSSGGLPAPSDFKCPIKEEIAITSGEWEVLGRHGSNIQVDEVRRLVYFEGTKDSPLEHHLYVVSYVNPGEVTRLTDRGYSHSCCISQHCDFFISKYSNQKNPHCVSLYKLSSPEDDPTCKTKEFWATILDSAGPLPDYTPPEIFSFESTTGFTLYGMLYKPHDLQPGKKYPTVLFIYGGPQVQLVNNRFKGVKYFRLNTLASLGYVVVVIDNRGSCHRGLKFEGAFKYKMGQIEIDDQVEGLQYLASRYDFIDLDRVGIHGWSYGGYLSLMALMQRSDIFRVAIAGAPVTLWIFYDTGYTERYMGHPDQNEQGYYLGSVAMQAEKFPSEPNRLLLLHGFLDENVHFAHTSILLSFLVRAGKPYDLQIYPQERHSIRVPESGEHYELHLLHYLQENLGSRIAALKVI

Regarding `CC(C)(F)COc1ccc2nccc(C(=O)NCC(=O)N3CSC[C@H]3C#N)c2c1` [Example 3, (R)—N-(2-(4-Cyanothiazolidin-3-yl)-2-oxoethyl)-6-(2-fluoro-2-methylpropoxy)quinoline-4-carboxamide], the IC50 in series [1] is more than 100 µM; in series [2] it was 6.4 µM.
Turning to `COC(C)(C)c1ccc2nccc(C(=O)NCC(=O)N3CSC[C@H]3C#N)c2c1` [Example 18, (R)—N-(2-(4-Cyanothiazolidin-3-yl)-2-oxoethyl)-6-(2-methoxypropan-2-yl)quinoline-4-carboxamide], in the series on Rat Hepatocytes (rHep), the “rHeps CLint” value amounted to 26 μL/min/1E6. For the same compound, the solubility in “Kinetic solubility” was more than 1000 µM. The compound also had a microsomal CLint in series [3] of 69 µL/min/mg.
